Ten molecules from ChEMBL document CHEMBL1221319, “Synthesis and biological evaluation of vitamin K derivatives as angiogenesis inhibitor” (Bioorg Med Chem, 2010) can be followed below.

Active and inactive are the calls of the source. The rule behind the calls is not given here.

The subject of data set [1] is Aorta. Description: Ex vivo antiangiogenic activity in Wistar rat aortic ring assessed as inhibition of angiogenesis at 100 uM after 7 days by phase-contrast microscopy. Type of data set: functional, tissue-based.
For data set [2], the system named is Aorta. Description: Ex vivo antiangiogenic activity in Wistar rat aortic ring assessed as decrease of microvessel length at 100 uM after 7 days by phase-contrast microscopy. Type of data set: functional, tissue-based.
Data set [3] has as its system Aorta. Description: Ex vivo antiangiogenic activity in Wistar rat aortic ring assessed as inhibition of angiogenesis at 50 uM after 7 days by phase-contrast microscopy. Type of data set: functional.
The subject of data set [4] is Aorta. Nature of the data set: Ex vivo antiangiogenic activity in Wistar rat aortic ring assessed as inhibition of angiogenesis after 7 days by phase-contrast microscopy. The class given is functional, tissue-based.
The subject of data set [5] is HUVEC. Nature of the data set: Antiangiogenic activity in HUVEC assessed as reduction of tube formation at 100 uM after 12 hrs by phase-contrast microscopy. The class given is functional, cell-based. The settings on record: Homo sapiens.
Data set [6] relates to HUVEC. Nature of the data set: Inhibition of VEGF-induced HUVEC migration at 100 uM after 6 hrs by gelatin-coated Boyden chamber assay. Type of data set: functional, cell-based. The settings on record: Homo sapiens.
Data set [7] relates to HUVEC. Nature of the data set: Antiproliferative activity against HUVEC at 5 to 100 uM after 72 hrs by WST-1 assay. Type of data set: functional, cell-based. The following applies: Homo sapiens.
Another data set has as its system HCT-116. Description: Cytotoxicity against human HCT116 cells. Type of data set: functional.
Data set [8] is described as follows: Cytotoxicity against HDF. The following applies: human.

As for `CNC1=C(C)C(=O)c2ccccc2C1=O`, in the data set on Aorta [1], the outcome was Active.

As to `CCCCC1=C(C)C(=O)c2ccccc2C1=O`, the outcome with Aorta [1] was inactive. Besides, in the data set on Aorta [2], the result was Active.

Consider `CCCNC1=C(C)C(=O)c2ccccc2C1=O`, for which the Activity in the data set on Aorta [3] was greater than 50 µM; with Aorta [4], “Dose-dependent effect”; with HCT-116 it was greater than 100 µM; in data set [8], greater than 100 µM. The result in the data set with Aorta [1], in the data set with Aorta [2], in the data set on HUVEC [5] and in the data set on HUVEC [7] was Active. In addition, the inhibition entry in the data set on HUVEC [6] was “inactive”.

In the case of `CCCCCCCC1=C(C)C(=O)c2ccccc2C1=O`, the outcome in the data set with Aorta [1] and in the data set with Aorta [2] was inactive.

For `CCCCCCNC1=C(C)C(=O)c2ccccc2C1=O`, the result in the data set on Aorta [1] and in the data set with Aorta [2] was inactive.

Turning to `CCCCCCCCCCC1=C(C)C(=O)c2ccccc2C1=O`, the result in the data set with Aorta [1] and in the data set on Aorta [2] was inactive.

As for `CC1=C(C2=C(C)C(=O)c3ccccc3C2=O)C(=O)c2ccccc2C1=O`, the outcome in the data set on Aorta [1] was inactive.

`CCC1=C(C)C(=O)c2ccccc2C1=O`: the outcome with Aorta [1] was Active.

As for `CC1=C(Br)C(=O)c2ccccc2C1=O`, in the data set with Aorta [1], the outcome was Active.

As to `CCCCCCCCCNC1=C(C)C(=O)c2ccccc2C1=O`, the outcome with Aorta [1] and in the data set on Aorta [2] was inactive.
